Reference: patent publication US20260139063A1, “PRE-MEDICATION AND IMPROVED TREATMENT REGIMEN” (MonTa Biosciences ApS, priority 2022, published 2026)
“Also recorded” adds a separate entry of the source.

How the values were obtained:
[1] = system: plasma cytokines and chemokines; assay: Clinical plasma biomarkers (cytokines and chemokines, MSD multiplex panels) after MBS8(1V270) with or without tocilizumab pre-medication; format: in vivo, human; settings: patients
Experimental: FIG. 1: Detection of cytokines in plasma of subjects treated with 0.1 mg/kg MBS8(1V270) without (left panels) or with (right panels) pre-medication with tocilizumab (8 mg/kg). The measurements were done using GLP/GCP compliant multiplex panels purchased from Meso Scale Discovery (MSD) (Cytokine Panel 1 Human kit, Cytokine Panel 2 Human kit and Chemokine Panel 1 Human kit). Data treatment was performed using GraphPad Prism 9 software. Selected biomarkers were IL-6 (FIG. 1A), TNF-α (FIG. 1B), IL-1RA (FIG. 1C), IFN-γ (FIG. 1D), IP-10 (FIG. 1E), IL-1β (FIG. 1F), IL-8 (FIG. 1G) and IL-10 (FIG. 1H).
MBS8(1V270) was administered to all subjects at 0.1 mg/kg by IV infusion for a duration of 2 hours for four dosing occasions. Infusions were given one week apart on Days 1, 8, 15, and 22. Patients pretreated with tocilizumab were administered tocilizumab (8 mg/kg) prior to MBS8(1V270) infusion on the first dosing occasion (day 1) as a CRS preventive measure. The biomarkers were measured using GLP/GCP compliant and validated multiplex panels purchased from MSD in a quantitative procedure to measure these cytokines and chemokines.
The following plasma biomarkers were identified in this clinical study: safety-related (IL-1β, IL-8, IL-6, TNF-α and IL-10) and pharmacodynamics biomarkers (IFN-γ, MCP-1, IP-10, IL-1RA and IL-12p70) (FIG. 1A-1H). Blood samples were taken at pre-dose (0), 2 h, 8 h, and 24 h post-end of infusion and processed to plasma and frozen for later biomarker analyses.

[2] = system: subjects presenting with advanced solid tumors; assay: Occurrence of Cytokine Release Syndrome (CRS), CTCAE version 5.0 grading, on all dosing occasions; format: in vivo, human
Experimental: FIG. 2: Table overview (FIG. 2A) of CRS occurrences in patients were assessed according to CTCAE grading, in patients treated with MBS8(1V270) on 4 occasions on day 1, 8, 15 and 22. Patient (pt) 1-3 were not pretreated with tocilizumab, whereas pt 4-7 were pretreated with tocilizumab prior to dosing with MBS8(1V270). All subjects received MBS8(1V270) at 0.1 mg/kg at each dosing occasion, and the clinical picture observed and rated according to the CTCAE grading shown in FIG. 2B. N/A=Not applicable. Table overview (FIG. 2B) of official CTCAE grading of patients with CRS symptoms as used for grading of CRS severeness for patients in FIG. 2A.CRS grading was done according to CTCAE Version 5.0.
MBS8(1V270) was administered to all subjects at 0.1 mg/kg by IV infusion for a duration of 2 hours for four dosing occasions. Infusions were given one week apart on Days 1, 8, 15, and 22. Patients pretreated with tocilizumab were administered tocilizumab (8 mg/kg) prior to MBS8(1V270) infusion on the first dosing occasion as a CRS preventive measure. […] Seven subjects presenting with advanced solid tumors were treated with MBS8(1V270) at 0.1 mg/kg once weekly on four dosing occasions as described in Example 1. […] Tocilizumab was administered as a one-hour intravenous infusion at 8 mg/kg just prior to MBS8(1V270) administration.
Occurrence of Cytokine Release Syndrome (CRS) was assessed on all dosing occasions. CRS was defined in accordance with Common Terminology Criteria for Adverse Events (CTCAE) version 5.0 as “a disorder characterized by fever, tachypnea, headache, tachycardia, hypotension, rash, and/or hypoxia caused by the release of cytokines”.

[3] = tocilizumab 8 mg/kg prior to MBS8(1V270) 0.1 mg/kg IV
[4] = tocilizumab premedicated patients (pt 4-7): tocilizumab 8 mg/kg IV day 1 just prior to MBS8(1V270) 0.1 mg/kg IV, days 1, 8, 15, 22

tocilizumab: humanized monoclonal antibody against the interleukin-6 receptor (IL-6R), CAS: 375823-41-9
IFN-γ plasma level after tocilizumab premedication compared with without [1, 3]: higher levels | IL-6 plasma level after tocilizumab premedication compared with without [1, 3]: higher levels | IP-10 plasma level after tocilizumab premedication compared with without [1, 3]: higher levels | interference of tocilizumab with the MoA of MBS8(1V270) [1, 3]: does not interfere | effect of tocilizumab pre-medication on cytokine and chemokine levels expected to play a role for the anti-tumor activity of MBS8(1V270) ([1]; tocilizumab 8 mg/kg prior to MBS8(1V270) 0.1 mg/kg IV infusion on day 1, plasma pre-dose, 2 h, 8 h, 24 h post-end of infusion): does not downregulate | CRS observed (clinical signs, CTCAE v5.0) ([2]; patient 4-7 pretreated with tocilizumab 8 mg/kg before MBS8(1V270) 0.1 mg/kg): No clinical signs of CRS; also recorded: no CRS observed at any dosing occasion | CRS experienced, number of dosing occasions [2, 4]: 0 of the 14 | CRS experienced, percent of dosing occasions [2, 4]: 0%
